# Measurements reported in article PMC3568987 (ACS medicinal chemistry letters, 2012).
# Key:
# human hepatocytes = assay: Hepatocyte intrinsic clearance; assay type: in vitro ADME
# rat hepatocytes = assay: Hepatocyte intrinsic clearance; assay type: in vitro ADME
structure (smiles),measurement,setting,value
CC#Cc1cncc(-c2cc(Cl)c([C@]3(C)CC(=O)N(C)C(=N)N3)s2)c1 [Compound 16],intrinsic clearance,human hepatocytes,2.7 μL.min^−1 ·10^6 cells
same,intrinsic clearance,rat hepatocytes,4.9 μL.min^−1 ·10^6 cells
